Measured values reported in paper PMC11019538, “Biophysics-Guided Lead Discovery of HBV Capsid Assembly Modifiers” (ACS Infectious Diseases, 2024).

These compounds were tested on HBV DNA replication in HepAD38 cells (assay: HBV DNA replication inhibition assay in HepAD38 cells (7 days, PCR of supernatant DNA)). Conditions: HepAD38 cells, 10 µM, first round of selected compounds.
Assay type: cell-based, hepatitis B virus
Protocol: HepAD38 cells were seeded at 50,000 cells/well in collagen-coated 96-well plates. […] The experiment lasted 7 days. On day 7, total DNA was purified from the supernatant using a commercially available kit (DNeasy 96 Blood & Tissue kit, Qiagen). The HBV DNA was amplified in a polymerase chain reaction assay using LightCycler 480 II (Roche), as previously described.[63] All samples were tested in duplicate.

| Compound | HBV DNA inhibition (%) at 10 µM |
| --- | --- |
| CNc1cc(C#N)nc(-c2ccccc2)n1 [GT-28] | < 1% |
| O=C(CC1C=Cc2ccccc2N1C(=O)c1ccccc1)c1ccccc1 (stereo not drawn) [GT-8] | < 1% |
| NCc1cccc(Oc2ccccc2)c1 [GT-12] | < 1% |
| Fc1ccccc1CNCc1ccccn1 [GT-14] | < 1% |
| CC(NC(=O)c1ccccc1)c1ccccn1 (stereo not drawn) [GT-25] | < 1% |
| Cc1nc(-c2ccccc2)c(Cc2ccccc2O)c(=O)[nH]1 [GT-7] | < 1% |
| Nc1ccn([C@@H]2CS[C@H](CO)O2)c(=O)n1 [3TC, reference compound] | 97% |

Same assay, conditions: HepAD38 cells, 10 μM, trial 1

| Compound | % HBV DNA Inh. at 10 μM, trial 1 |
| --- | --- |
| Oc1c(C(Nc2ccccc2)c2ccccc2)ccc2cccnc12 (stereo not drawn) [GT-48] | < 1% |
| COc1ccc(-c2cc(C(=O)Oc3cccc(-c4cnc5ccccc5n4)c3)c3ccccc3n2)cc1 [GT-31] | < 1% |
| OC(Cn1cnc(-c2ccccc2)c1-c1cc2ccccc2[nH]1)c1cccnc1 (stereo not drawn) [GT-41] | < 1% |
| Nc1ccn([C@@H]2CS[C@H](CO)O2)c(=O)n1 [3TC, reference compound] | 82% |

Same assay, conditions: HepAD38 cells, 10 μM, trial 2

| Compound | % HBV DNA Inh. at 10 μM, trial 2 |
| --- | --- |
| Oc1c(C(Nc2ccccc2)c2ccccc2)ccc2cccnc12 (stereo not drawn) [GT-48] | < 1% |
| COc1ccc(-c2cc(C(=O)Oc3cccc(-c4cnc5ccccc5n4)c3)c3ccccc3n2)cc1 [GT-31] | < 1% |
| OC(Cn1cnc(-c2ccccc2)c1-c1cc2ccccc2[nH]1)c1cccnc1 (stereo not drawn) [GT-41] | < 1% |

Same assay, conditions: HepAD38 cells, trial 1; read-out: EC50, trial 1

| Compound | EC50 |
| --- | --- |
| Oc1c(C(Nc2ccccc2)c2ccccc2)ccc2cccnc12 (stereo not drawn) [GT-48] | > 10 µM |
| COc1ccc(-c2cc(C(=O)Oc3cccc(-c4cnc5ccccc5n4)c3)c3ccccc3n2)cc1 [GT-31] | > 10 µM |
| OC(Cn1cnc(-c2ccccc2)c1-c1cc2ccccc2[nH]1)c1cccnc1 (stereo not drawn) [GT-41] | > 10 µM |

Same assay, conditions: HepAD38 cells, trial 2; read-out: EC50, trial 2

| Compound | EC50 |
| --- | --- |
| Oc1c(C(Nc2ccccc2)c2ccccc2)ccc2cccnc12 (stereo not drawn) [GT-48] | > 10 µM |
| COc1ccc(-c2cc(C(=O)Oc3cccc(-c4cnc5ccccc5n4)c3)c3ccccc3n2)cc1 [GT-31] | > 10 µM |
| OC(Cn1cnc(-c2ccccc2)c1-c1cc2ccccc2[nH]1)c1cccnc1 (stereo not drawn) [GT-41] | > 10 µM |

Each compound was assayed on human peripheral blood mononuclear (PBM) cells (assay: MTT cytotoxicity, PBM cells). Conditions: not given.
Assay type: cell-based
Protocol: (§1) Human peripheral blood mononuclear (PBM), T lymphoblast CEM-CCRF (herein referred to as CEM cells), African green monkey kidney (Vero), or human liver carcinoma (HepG2) cells were tested via MTT assay using the CellTiter 96 Non-Radioactive Cell Proliferation (Promega) kit as previously described.[63]

| Compound | CC50 |
| --- | --- |
| Oc1c(C(Nc2ccccc2)c2ccccc2)ccc2cccnc12 (stereo not drawn) [GT-48] | 20 µM |
| COc1ccc(-c2cc(C(=O)Oc3cccc(-c4cnc5ccccc5n4)c3)c3ccccc3n2)cc1 [GT-31] | 86 µM |
| OC(Cn1cnc(-c2ccccc2)c1-c1cc2ccccc2[nH]1)c1cccnc1 (stereo not drawn) [GT-41] | 27 µM |
| CNc1cc(C#N)nc(-c2ccccc2)n1 [GT-28] | 24 µM |
| O=C(CC1C=Cc2ccccc2N1C(=O)c1ccccc1)c1ccccc1 (stereo not drawn) [GT-8] | > 100 µM |
| NCc1cccc(Oc2ccccc2)c1 [GT-12] | > 100 µM |
| Fc1ccccc1CNCc1ccccn1 [GT-14] | > 100 µM |
| CC(NC(=O)c1ccccc1)c1ccccn1 (stereo not drawn) [GT-25] | > 100 µM |
| Cc1nc(-c2ccccc2)c(Cc2ccccc2O)c(=O)[nH]1 [GT-7] | > 100 µM |

The compounds below were run on T lymphoblast CEM-CCRF (CEM) cells (assay: MTT cytotoxicity, CEM cells). Conditions: not given.
Assay type: cell-based, human
Protocol: as §1

| Compound | CC50 |
| --- | --- |
| Oc1c(C(Nc2ccccc2)c2ccccc2)ccc2cccnc12 (stereo not drawn) [GT-48] | 3.4 µM |
| COc1ccc(-c2cc(C(=O)Oc3cccc(-c4cnc5ccccc5n4)c3)c3ccccc3n2)cc1 [GT-31] | > 100 µM |
| OC(Cn1cnc(-c2ccccc2)c1-c1cc2ccccc2[nH]1)c1cccnc1 (stereo not drawn) [GT-41] | 12 µM |
| CNc1cc(C#N)nc(-c2ccccc2)n1 [GT-28] | 63.8 µM |
| O=C(CC1C=Cc2ccccc2N1C(=O)c1ccccc1)c1ccccc1 (stereo not drawn) [GT-8] | > 100 µM |
| NCc1cccc(Oc2ccccc2)c1 [GT-12] | 17 µM |
| Fc1ccccc1CNCc1ccccn1 [GT-14] | > 100 µM |
| CC(NC(=O)c1ccccc1)c1ccccn1 (stereo not drawn) [GT-25] | > 100 µM |
| Cc1nc(-c2ccccc2)c(Cc2ccccc2O)c(=O)[nH]1 [GT-7] | > 100 µM |

Same assay, conditions: 100 µM

| Compound | % cytotoxicity at 100 µM (MTT), CEM cells |
| --- | --- |
| COc1ccc(-c2cc(C(=O)Oc3cccc(-c4cnc5ccccc5n4)c3)c3ccccc3n2)cc1 [GT-31] | 36% |

These compounds were tested on African green monkey kidney (Vero) cells (assay: MTT cytotoxicity, Vero cells). Conditions: Vero cells.
Assay type: cell-based
Protocol: as §1

| Compound | CC50 |
| --- | --- |
| Oc1c(C(Nc2ccccc2)c2ccccc2)ccc2cccnc12 (stereo not drawn) [GT-48] | 4.5 µM |
| COc1ccc(-c2cc(C(=O)Oc3cccc(-c4cnc5ccccc5n4)c3)c3ccccc3n2)cc1 [GT-31] | 97 µM |
| OC(Cn1cnc(-c2ccccc2)c1-c1cc2ccccc2[nH]1)c1cccnc1 (stereo not drawn) [GT-41] | 18 µM |
| CNc1cc(C#N)nc(-c2ccccc2)n1 [GT-28] | > 100 µM |
| O=C(CC1C=Cc2ccccc2N1C(=O)c1ccccc1)c1ccccc1 (stereo not drawn) [GT-8] | > 100 µM |
| NCc1cccc(Oc2ccccc2)c1 [GT-12] | > 100 µM |
| Fc1ccccc1CNCc1ccccn1 [GT-14] | > 100 µM |
| CC(NC(=O)c1ccccc1)c1ccccn1 (stereo not drawn) [GT-25] | > 100 µM |
| Cc1nc(-c2ccccc2)c(Cc2ccccc2O)c(=O)[nH]1 [GT-7] | > 100 µM |

The compounds below were run on human liver carcinoma (HepG2) cells (assay: MTT cytotoxicity, HepG2 cells). Conditions: HepG2 cells.
Assay type: cell-based
Protocol: as §1

| Compound | CC50 |
| --- | --- |
| Oc1c(C(Nc2ccccc2)c2ccccc2)ccc2cccnc12 (stereo not drawn) [GT-48] | 34 µM |
| COc1ccc(-c2cc(C(=O)Oc3cccc(-c4cnc5ccccc5n4)c3)c3ccccc3n2)cc1 [GT-31] | 42 µM |
| OC(Cn1cnc(-c2ccccc2)c1-c1cc2ccccc2[nH]1)c1cccnc1 (stereo not drawn) [GT-41] | 10 µM |
| CNc1cc(C#N)nc(-c2ccccc2)n1 [GT-28] | > 100 µM |
| O=C(CC1C=Cc2ccccc2N1C(=O)c1ccccc1)c1ccccc1 (stereo not drawn) [GT-8] | > 100 µM |
| NCc1cccc(Oc2ccccc2)c1 [GT-12] | > 100 µM |
| Fc1ccccc1CNCc1ccccn1 [GT-14] | > 100 µM |
| CC(NC(=O)c1ccccc1)c1ccccn1 (stereo not drawn) [GT-25] | > 100 µM |
| Cc1nc(-c2ccccc2)c(Cc2ccccc2O)c(=O)[nH]1 [GT-7] | > 100 µM |
